Experimental data from patent US20100317621A1, “BETA-LACTAMASE INHIBITORS” (priority 2007, published 2010).
pIC50: −log10 of the molar value. Read-outs that look alike come from different tables or passages of the source.

Columns and labels:
SHV-5 β-lactamase = target: T1, SHV-5 β-lactamase (Klebsiella pneumoniae, UniProt P0A3M1); assay: biochemical; assay type: biochemical, Escherichia coli
T1 construct: The β-lactamases were extracted by four cycles of freezing and thawing followed by centrifugation; endogenous in cells; host or cells: Escherichia coli cells containing SHV-5 (crude freeze-thaw extract)
T1 sequence (P0A3M1 22-286): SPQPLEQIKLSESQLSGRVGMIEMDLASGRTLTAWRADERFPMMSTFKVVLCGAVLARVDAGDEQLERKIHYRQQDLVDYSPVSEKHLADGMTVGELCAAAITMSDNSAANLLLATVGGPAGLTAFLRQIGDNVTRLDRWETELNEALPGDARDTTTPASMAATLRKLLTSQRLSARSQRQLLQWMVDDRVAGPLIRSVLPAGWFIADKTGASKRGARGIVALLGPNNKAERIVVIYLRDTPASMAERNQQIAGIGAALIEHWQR
Procedure: (§1) Isolation of β-lactamases. Crude β-lactamase extracts were prepared from 20 ml overnight cultures with shaking. Escherichia coli cells containing SHV-5 or CTXM-15 and Enterobacter cloacae cells containing P99 were further diluted 10-fold and grown to mid-log phase (OD at 600 nm, 0.5-0.8) in Mueller-Hinton II (MH-II) broth at 37° C. The cells were pelleted at 5000 g, washed and resuspended in 2 mL PBS pH 7.0. The β-lactamases were extracted by four cycles of freezing and thawing followed by centrifugation. β-lactamase activity in the extracts was measured with the chromogenic cephalosporin nitrocefin. The amount of protein in each β-lactamase preparation was determined by the bicinchoninic acid (BCA) assay.
(§2) β-lactamase Inhibition. To determine the level of inhibition of β-lactamase enzymes, compounds were diluted in PBS at pH 7.0 to yield concentrations between 100 and 0.005 μM in microtiter plates. An equal volume of diluted enzyme stock was added, and the plates were incubated at 37° C. for 10 min. Nitrocefin solution was then dispensed as substrate into each well at a final concentration of 100 μM, and the plates were immediately read with the kinetic program at 486 nm for 10 min on the SPECTRAMAX® Plus^384 (high-throughput microplate spectrophotometer; Molecular Devices Corp., Sunnyvale, Calif.). Maximum rates of metabolism were then compared to those in control wells (without inhibitors), and percentages of enzyme inhibition were calculated for each concentration of inhibitor. The concentration of inhibitor needed to reduce the initial rate of hydrolysis of substrate by 50% (IC50) was calculated as the residual activity of β-lactamase at 486 nm using the SoftMax Pro 5.0 software (Molecular Devices Corp.).

CTXM-15 β-lactamase = target: T2, CTXM-15 β-lactamase (Escherichia coli, UniProt Q9EXV5); assay: biochemical; assay type: biochemical; conditions: crude enzyme extract, 10 min preincubation at 37° C., nitrocefin 100 μM, PBS pH 7.0; read-out: CTXM-15 IC50 Range
T2 construct: The β-lactamases were extracted by four cycles of freezing and thawing followed by centrifugation; endogenous in cells; host or cells: Escherichia coli cells containing CTXM-15 (crude freeze-thaw extract)
T2 sequence (Q9EXV5 29-291): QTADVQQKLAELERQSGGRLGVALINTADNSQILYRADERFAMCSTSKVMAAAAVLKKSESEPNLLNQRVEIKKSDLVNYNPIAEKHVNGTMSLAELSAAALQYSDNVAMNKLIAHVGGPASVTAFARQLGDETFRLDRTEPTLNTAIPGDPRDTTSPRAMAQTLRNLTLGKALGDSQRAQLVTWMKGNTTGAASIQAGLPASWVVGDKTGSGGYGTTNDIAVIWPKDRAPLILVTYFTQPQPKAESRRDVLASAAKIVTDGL
Procedure: as §1, §2

P99 AmpC β-lactamase = target: T3, P99 AmpC β-lactamase (Enterobacter cloacae, UniProt P05364); assay: biochemical; assay type: biochemical
T3 construct: The β-lactamases were extracted by four cycles of freezing and thawing followed by centrifugation; endogenous in cells; host or cells: Enterobacter cloacae cells containing P99 (crude freeze-thaw extract)
T3 sequence (P05364 21-381): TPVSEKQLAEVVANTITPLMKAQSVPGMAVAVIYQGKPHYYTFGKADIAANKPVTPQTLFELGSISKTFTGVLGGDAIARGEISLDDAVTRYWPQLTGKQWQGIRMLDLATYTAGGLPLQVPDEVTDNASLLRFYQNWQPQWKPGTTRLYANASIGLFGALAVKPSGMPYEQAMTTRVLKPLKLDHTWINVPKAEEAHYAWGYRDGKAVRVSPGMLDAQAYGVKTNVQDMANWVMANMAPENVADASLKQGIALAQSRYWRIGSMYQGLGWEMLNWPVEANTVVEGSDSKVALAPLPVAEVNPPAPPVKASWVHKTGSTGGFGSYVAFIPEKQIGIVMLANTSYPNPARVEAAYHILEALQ
Procedure: as §1, §2

[1] = test system: E. cloacae expressing the Class C P99+; assay type: cell-based; conditions: in the presence of fixed 8 μg/mL ceftazidime; CAMHB, 16-20 hours at 37° C.
Source text: (§3) To determine the ability of test compounds to potentiate the inhibition of the growth of bacterial strains producing beta-lactamase enzymes, classic cell based screening assays were employed. Four bacteria strains producing beta-lactamase enzymes were used: E. coli expressing the Class A Extended Spectrum Beta-Lactamase (ESBL) CTX-M-15, E. coli expressing the Class A ESBL SHV-5, E. cloacae expressing the Class C P99+, and K. pneumoniae expressing the Class A carbapenemase KPC-2. In order to evaluate the ability of test compounds to inhibit beta-lactamase activity, Applicants used a modification of the broth microdilution assay. The assay was conducted in Cation Adjusted Mueller Hinton Broth (CAMHB, BD #212322, BD Diagnostic Systems, Sparks, Md.). Bacteria strains were grown for 3-5 hours in CAMBH broth. All four strains were grown in presence of 50 μg/mL ampicillin to ensure resistance is maintained. In the meantime, test compounds were diluted in DMSO to a 0.1 mg/mL stock. The compounds were added to a microtiter plate and were diluted in 2-fold serial dilutions in CAMHB in a final concentration range of 32 μg/mL to 0.25 μg/mL. An overlay of CAMHB containing a cephalosporin was added to the compounds at a final static concentration of 8 μg/mL. […] Each of these compound plates are made in quadruplicate, one for each bacteria strain. In addition to the titration of test compounds the MICs of a panel of cephalosporins is also tested to ensure the strains are behaving consistently from test to test. Once the test compound and cephalosporin are added the plates can be inoculated. Inocula are conducted according to CLSI broth microdilution method. After inoculation the plates are incubated for 16-20 hours at 37° C. then the Minimal Inhibitory Concentration (MIC) of the test compound is determined visually.
(§4) Using the methodology described above, examples of the current invention were evaluated for their ability to inhibit the growth of β-lactamase producing bacteria in the presence of a β-lactam antibiotic.

[2] = test system: E. coli expressing the Class A ESBL CTX-M-15; assay type: cell-based; conditions: in the presence of fixed 8 μg/mL cefotaxime; CAMHB, 16-20 hours at 37° C.
Source text: as §3, §4

[3] = test system: E. coli expressing the Class A ESBL SHV-5; assay type: cell-based; conditions: in the presence of fixed 8 μg/mL ceftazidime; CAMHB, 16-20 hours at 37° C.
Source text: as §3, §4

[4] = test system: K. pneumoniae expressing the Class A carbapenemase KPC-2; assay type: cell-based; conditions: in the presence of fixed 8 μg/mL ceftazidime; CAMHB, 16-20 hours at 37° C.
Source text: as §3, §4

[5] = crude enzyme extract, 10 min preincubation at 37° C., nitrocefin 100 μM, PBS pH 7.0, read-out: SHV-5 IC50 Range
[6] = crude enzyme extract, 10 min preincubation at 37° C., nitrocefin 100 μM, PBS pH 7.0, read-out: P99 AmpC IC50 Range

Row | SMILES | pIC50 (SHV-5 β-lactamase; [5]) | pIC50 (CTXM-15 β-lactamase) | pIC50 (P99 AmpC β-lactamase; [6]) | MIC of example compound, E. cloacae P99+ + 8 μg/mL CAZ [1] | MIC of example compound, E. coli CTXM-15 + 8 μg/mL TAX [2] | MIC of example compound, E. coli SHV-5 + 8 μg/mL CAZ [3] | MIC of example compound, K. pneumoniae KPC-2 + 8 μg/mL CAZ [4] | pIC50 (SHV-5 β-lactamase) | pIC50 (P99 AmpC β-lactamase)
1 | O=C(Cc1cccs1)N[C@@H](Cc1cccc(C(=O)O)c1)B(O)O [Example 1, (1R)-1-(2-thiophene-2-yl-acetylamino)-2-(3-carboxyphenyl)ethyl-1-boronic acid] | > 7.00 | > 7.00 | 6.00 to 7.00 | B (B represents an MIC between 2 and 32 μg/mL) | B (B represents an MIC between 2 and 32 μg/mL) | B (B represents an MIC between 2 and 32 μg/mL) | C (C represents an MIC of <2 μg/mL) | – | –
2 | COc1ccc(CC(=O)N[C@@H](Cc2cccc(C(=O)O)c2)B(O)O)cc1OC [Example 11, (1R)-1-(3,4-Dimethoxyphenylacetylamino)-2-(3-carboxyphenyl)ethyl-1-boronic acid] | > 7.00 | > 7.00 | 6.00 to 7.00 | B (B represents an MIC between 2 and 32 μg/mL) | B (B represents an MIC between 2 and 32 μg/mL) | B (B represents an MIC between 2 and 32 μg/mL) | A (A represents an MIC>32 μg/mL) | – | –
3 | CN1CCC(Oc2cccc(CC(=O)NC(Cc3cccc(C(=O)O)c3)B(O)O)c2)C1 [Example 28, (1R)-1-(2-[3-(1-methyl-pyrrolidin-3-yloxy)-phenyl]-acetylamino)-2-(3-carboxyphenyl)ethyl-1-boronic acid] | – | 6.00 to 7.00 | – | – | – | – | – | 6.00 to 7.00 | > 7.00
4 | O=C(Cc1ccc2ccccc2c1)N[C@@H](Cc1cccc(C(=O)O)c1)B(O)O [Example 23, (1R)-1-(2-naphthalen-2-yl-acetylamino)-2-(3-carboxyphenyl)ethyl-1-boronic acid] | > 7.00 | > 7.00 | > 7.00 | – | – | – | – | – | –
5 | O=C(CCC(=O)C1CC1)N[C@@H](Cc1cccc(C(=O)O)c1)B(O)O [Example 36, (1R)-1-(4-Cyclopropyl-4-oxo-butyrylamino)-2-(3-carboxyphenyl)ethyl-1-boronic acid] | < 6.00 | – | < 6.00 | B (B represents an MIC between 2 and 32 μg/mL) | B (B represents an MIC between 2 and 32 μg/mL) | B (B represents an MIC between 2 and 32 μg/mL) | – | – | –
6 | O=C(CCc1cccs1)N[C@@H](Cc1cccc(C(=O)O)c1)B(O)O [Example 10, (1R)-1-(3-thiophene-2-yl-propionylamino)-2-(3-carboxyphenyl)ethyl-1-boronic acid] | < 6.00 | 6.00 to 7.00 | < 6.00 | – | – | – | – | – | –
7 | COc1ccc(C(=O)CCC(=O)N[C@@H](Cc2cccc(C(=O)O)c2)B(O)O)cc1 [Example 38, (1R)-1-(4-(4-Methoxy-phenyl)-4-oxo-butyrylamino)-2-(3-carboxyphenyl)ethyl-1-boronic acid] | 6.00 to 7.00 | 6.00 to 7.00 | 6.00 to 7.00 | – | – | – | – | – | –
8 | O=C(O)COc1cccc(CC(=O)N[C@@H](Cc2cccc(C(=O)O)c2)B(O)O)c1 [Example 27, (1R)-1-(2-(3-carboxymethoxy)phenylacetylamino)-2-(3-carboxyphenyl)ethyl-1-boronic acid] | > 7.00 | 6.00 to 7.00 | 6.00 to 7.00 | – | – | – | – | – | –
9 | NC(=O)COc1cccc(CC(=O)N[C@@H](Cc2cccc(C(=O)O)c2)B(O)O)c1 [Example 33, (1R)-1-[2-(3-Carbamoylmethoxy-phenyl)-acetylamino}-2-(3-carboxyphenyl)ethyl-1-boronic acid] | > 7.00 | > 7.00 | 6.00 to 7.00 | B (B represents an MIC between 2 and 32 μg/mL) | B (B represents an MIC between 2 and 32 μg/mL) | B (B represents an MIC between 2 and 32 μg/mL) | – | – | –
10 | O=C(Cc1ccc(Cl)cc1)N[C@@H](Cc1cccc(C(=O)O)c1)B(O)O [Example 19, (1R)-1-(4-Chlorophenylacetylamino)-2-(3-carboxyphenyl)ethyl-1-boronic acid] | > 7.00 | > 7.00 | 6.00 to 7.00 | – | – | – | – | – | –
11 | O=C(Cc1cccc(Cl)c1)N[C@@H](Cc1cccc(C(=O)O)c1)B(O)O [Example 3, (1R)-1-(3-Chlorophenylacetylamino)-2-(3-carboxyphenyl)ethyl-1-boronic acid] | > 7.00 | > 7.00 | 6.00 to 7.00 | – | – | – | – | – | –
12 | COc1ccc(CC(=O)N[C@@H](Cc2cccc(C(=O)O)c2)B(O)O)c(Br)c1 [Example 26, (1R)-1-(2-Bromo-4-methoxyphenylacetylamino)-2-(3-carboxyphenyl)ethyl-1-boronic acid] | 6.00 to 7.00 | 6.00 to 7.00 | 6.00 to 7.00 | – | – | – | – | – | –
13 | O=C(CCCc1cccs1)N[C@@H](Cc1cccc(C(=O)O)c1)B(O)O [Example 35, (1R)-1-(4-Thiophen-2-yl-butyrylamino)-2-(3-carboxyphenyl)ethyl-1-boronic acid] | 6.00 to 7.00 | 6.00 to 7.00 | < 6.00 | – | – | – | – | – | –
14 | Cc1ccc(C(=O)O)cc1C[C@H](NC(=O)Cc1cccs1)B(O)O [Example 13, (1R)-1-(2-thiophene-2-yl-acetylamino)-2-(5-carboxy-2-methylphenyl)ethyl-1-boronic acid] | > 7.00 | 6.00 to 7.00 | < 6.00 | – | – | – | – | – | –
15 | Cn1c(CC(=O)N[C@@H](Cc2cccc(C(=O)O)c2)B(O)O)cc2ccccc21 [Example 14] | > 7.00 | 6.00 to 7.00 | 6.00 to 7.00 | – | – | – | – | – | –
16 | O=C(Cc1ccc(O)cc1)N[C@@H](Cc1cccc(C(=O)O)c1)B(O)O [Example 34, (1R)-1-(4-Hydroxyphenylacetylamino)-2-(3-carboxyphenyl)ethyl-1-boronic acid] | > 7.00 | 6.00 to 7.00 | > 7.00 | B (B represents an MIC between 2 and 32 μg/mL) | B (B represents an MIC between 2 and 32 μg/mL) | B (B represents an MIC between 2 and 32 μg/mL) | – | – | –
17 | O=C(Cc1ccc(C(F)(F)F)cc1)N[C@@H](Cc1cccc(C(=O)O)c1)B(O)O [Example 9, (1R)-1-(4-Trifluoromethylphenylacetylamino)-2-(3-carboxyphenyl)ethyl-1-boronic acid] | > 7.00 | > 7.00 | 6.00 to 7.00 | – | – | – | – | – | –
18 | O=C(CCC(=NO)c1cccs1)N[C@@H](Cc1cccc(C(=O)O)c1)B(O)O [Example 37, (1R)-1-(4-Hydroxyimino-4-thiophen-2-yl-butyrylamino)-2-(3-carboxyphenyl)ethyl-1-boronic acid] | < 6.00 | 6.00 to 7.00 | 6.00 to 7.00 | – | – | – | – | – | –
